Laboratory results taken from BindingDB's records for doi:10.1021/acs.jmedchem.0c00774 (Istituto Italiano Di Tecnologia, 2020).
pIC50: −log10 of the molar value.

Target: Prostaglandin G/H synthase 1 (Homo sapiens, UniProt P23219)
Experiment: Inhibition of human COX1

Sequence of Prostaglandin G/H synthase 1 (P23219 whole entry): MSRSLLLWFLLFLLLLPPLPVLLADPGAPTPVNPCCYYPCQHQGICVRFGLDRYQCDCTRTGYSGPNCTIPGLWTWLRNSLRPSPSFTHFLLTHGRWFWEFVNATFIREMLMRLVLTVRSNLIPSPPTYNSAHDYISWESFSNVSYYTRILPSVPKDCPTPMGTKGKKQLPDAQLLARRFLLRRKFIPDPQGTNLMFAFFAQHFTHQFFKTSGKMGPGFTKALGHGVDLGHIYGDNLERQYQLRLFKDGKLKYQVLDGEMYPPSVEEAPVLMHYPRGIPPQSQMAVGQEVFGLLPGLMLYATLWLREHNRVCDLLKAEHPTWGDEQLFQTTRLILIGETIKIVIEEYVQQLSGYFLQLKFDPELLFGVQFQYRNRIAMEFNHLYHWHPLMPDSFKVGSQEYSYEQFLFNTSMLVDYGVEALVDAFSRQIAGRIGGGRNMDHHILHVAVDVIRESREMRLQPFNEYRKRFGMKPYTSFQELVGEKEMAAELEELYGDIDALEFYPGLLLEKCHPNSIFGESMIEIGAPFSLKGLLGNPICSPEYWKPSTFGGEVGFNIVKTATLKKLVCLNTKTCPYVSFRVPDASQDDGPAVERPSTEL

pIC50: 5.40
SMILES: CN(C)c1ccc(Nc2nc(-c3ccncc3)nc3c2CC(N)CC3)cc1 (stereo unspecified)
